Activity calls are given as the source filed them.
How the values were obtained:
Orexin receptor type 2 [1] = biological target: T1, Orexin receptor type 2 (Homo sapiens, UniProt O43614); assay: Counterscreen assay for antagonists of the orexin 1 receptor (OX1R; HCRTR1): Homogeneous Time Resolved Fluorescence (HTRF)-based cell-based dose response assay for antagonists of the orexin 2 receptor (OX2R; HCRTR2), run by assay provider.; type: functional
T1 sequence (O43614 whole entry): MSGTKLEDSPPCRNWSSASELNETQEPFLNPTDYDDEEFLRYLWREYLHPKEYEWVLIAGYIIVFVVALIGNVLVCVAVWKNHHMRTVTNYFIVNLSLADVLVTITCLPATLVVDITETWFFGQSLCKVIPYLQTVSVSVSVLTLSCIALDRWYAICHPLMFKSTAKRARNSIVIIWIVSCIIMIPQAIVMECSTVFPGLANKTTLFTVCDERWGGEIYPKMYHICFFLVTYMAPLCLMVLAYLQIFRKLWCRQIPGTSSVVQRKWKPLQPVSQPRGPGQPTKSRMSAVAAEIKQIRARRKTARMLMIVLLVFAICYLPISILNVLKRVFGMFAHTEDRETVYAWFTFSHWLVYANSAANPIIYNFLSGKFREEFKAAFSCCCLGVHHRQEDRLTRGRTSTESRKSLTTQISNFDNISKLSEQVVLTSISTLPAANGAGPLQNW

[2] = (§1) Counterscreen for antagonists of the orexin 1 receptor (OX1R; HCRTR1): Fluorescence-based cell-based high throughput dose response assay to identify antagonists of the parental CHO cell line. [Related pubchem assays (depositor defined):AID434989, AID435008, AID463079, AID485270, AID492963, AID492964, AID492965, AID493232, AID504699, AID504701]; type: functional
CHO-K1 = assay: as §1, with “Homogeneous time resolved fluorescence (HTRF)-based” for “Fluorescence-based”, “cell-based” for “cell-based high throughput”, “CHO-K1” for “CHO”; type: functional; details: Cricetulus griseus;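 also: potency for inhibition of ATP-stimulated IP1 production as antagonists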
Orexin receptor type 2 [3] = biological target: T1, Orexin receptor type 2; assay: Counterscreen assay for antagonists of the orexin 1 receptor (OX1R; HCRTR1): Fluorescence-based cell-based dose response assay for antagonists of the orexin 2 receptor (OX2R; HCRTR2), run by assay provider.; type: functional
[4] = biological target: T2, Orexin/Hypocretin receptor type 1 (Homo sapiens, UniProt O43613); assay: Homogeneous Time Resolved Fluorescence (HTRF)-based cell-based high throughput dose response assay for antagonists of the orexin 1 receptor (OX1R; HCRTR1). [Related pubchem assays (depositor defined):AID434989, AID435008, AID463079, AID485270, AID492963, AID492964, AID492965, AID493232, AID504717, AID504718]; type: functional
T2 sequence (O43613 whole entry): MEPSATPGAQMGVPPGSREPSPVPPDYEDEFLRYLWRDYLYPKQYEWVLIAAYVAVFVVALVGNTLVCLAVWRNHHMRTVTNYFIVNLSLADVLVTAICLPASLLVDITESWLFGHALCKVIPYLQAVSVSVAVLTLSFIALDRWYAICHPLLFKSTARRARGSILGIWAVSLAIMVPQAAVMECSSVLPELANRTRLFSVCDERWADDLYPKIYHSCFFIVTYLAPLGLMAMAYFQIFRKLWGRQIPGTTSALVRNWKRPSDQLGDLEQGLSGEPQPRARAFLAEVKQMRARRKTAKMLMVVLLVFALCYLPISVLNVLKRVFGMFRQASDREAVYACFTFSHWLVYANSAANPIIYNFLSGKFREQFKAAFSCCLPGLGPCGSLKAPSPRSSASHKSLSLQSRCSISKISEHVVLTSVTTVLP

[5] = biological target: T2, Orexin/Hypocretin receptor type 1; assay: Fluorescence-based cell-based high throughput dose response assay for antagonists of the orexin 1 receptor (OX1R; HCRTR1). [Related pubchem assays (depositor defined):AID434989, AID435008, AID463079, AID485270, AID492963, AID492964, AID492965, AID493232, AID504717, AID504718]; type: functional
[6] = biological target: T3, Rac GTPase-activating protein 1 (Homo sapiens, UniProt Q9H0H5); assay: MgcRacGAP GTPase-activating activity inhibitors, confirmation, biochemical, ADP Hunter fluorescence, primary and confirmatory (AID 624330); type: functional
T3 sequence (Q9H0H5 whole entry): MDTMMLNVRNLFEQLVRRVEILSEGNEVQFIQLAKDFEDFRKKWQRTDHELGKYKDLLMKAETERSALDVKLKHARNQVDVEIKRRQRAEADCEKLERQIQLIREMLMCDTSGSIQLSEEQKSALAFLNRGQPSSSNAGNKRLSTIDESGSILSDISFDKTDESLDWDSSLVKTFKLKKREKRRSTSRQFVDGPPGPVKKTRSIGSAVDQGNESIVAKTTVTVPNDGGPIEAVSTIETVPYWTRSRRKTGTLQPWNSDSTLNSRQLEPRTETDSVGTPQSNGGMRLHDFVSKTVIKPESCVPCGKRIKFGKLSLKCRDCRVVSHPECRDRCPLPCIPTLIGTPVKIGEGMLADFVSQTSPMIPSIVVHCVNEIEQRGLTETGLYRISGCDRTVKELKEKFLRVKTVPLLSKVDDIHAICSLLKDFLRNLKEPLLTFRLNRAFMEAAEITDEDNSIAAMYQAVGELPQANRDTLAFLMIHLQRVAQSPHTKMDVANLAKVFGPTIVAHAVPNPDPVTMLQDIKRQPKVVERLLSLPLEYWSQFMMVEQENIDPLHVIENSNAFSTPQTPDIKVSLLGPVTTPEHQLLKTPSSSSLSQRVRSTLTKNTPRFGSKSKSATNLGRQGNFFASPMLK

[7] = biological target: Glucose-6-phosphate 1-dehydrogenase (Homo sapiens, UniProt P11413); assay: human G6PD enzyme inhibitors, dose response, selectivity assay for P. falciparum G6PD inhibitor project, biochemical, fluorescence (AID 504792); type: functional
Glucose-6-phosphate 1-dehydrogenase, sequence (P11413 whole entry): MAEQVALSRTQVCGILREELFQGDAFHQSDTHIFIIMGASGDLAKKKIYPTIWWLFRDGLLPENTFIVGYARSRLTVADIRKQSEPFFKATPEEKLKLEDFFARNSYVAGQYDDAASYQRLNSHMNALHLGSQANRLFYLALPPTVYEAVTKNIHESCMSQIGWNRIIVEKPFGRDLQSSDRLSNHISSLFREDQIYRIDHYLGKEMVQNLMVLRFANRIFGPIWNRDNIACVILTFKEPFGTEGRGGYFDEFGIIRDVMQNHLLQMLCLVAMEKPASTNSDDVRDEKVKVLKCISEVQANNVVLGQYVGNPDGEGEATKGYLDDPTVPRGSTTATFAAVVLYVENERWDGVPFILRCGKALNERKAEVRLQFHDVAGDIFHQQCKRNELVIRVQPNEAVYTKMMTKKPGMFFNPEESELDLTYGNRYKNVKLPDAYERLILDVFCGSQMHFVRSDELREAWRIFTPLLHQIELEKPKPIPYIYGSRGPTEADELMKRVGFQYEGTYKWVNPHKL

[8] = biological target: T4, Apoptotic protease-activating factor 1 (Homo sapiens, UniProt O14727); type: functional;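 as to EC50 Mean: caspase-3 cleavage of fluorogenic Rh110 DEVD substrate downstream of apoptosome activation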
T4 sequence (O14727 whole entry): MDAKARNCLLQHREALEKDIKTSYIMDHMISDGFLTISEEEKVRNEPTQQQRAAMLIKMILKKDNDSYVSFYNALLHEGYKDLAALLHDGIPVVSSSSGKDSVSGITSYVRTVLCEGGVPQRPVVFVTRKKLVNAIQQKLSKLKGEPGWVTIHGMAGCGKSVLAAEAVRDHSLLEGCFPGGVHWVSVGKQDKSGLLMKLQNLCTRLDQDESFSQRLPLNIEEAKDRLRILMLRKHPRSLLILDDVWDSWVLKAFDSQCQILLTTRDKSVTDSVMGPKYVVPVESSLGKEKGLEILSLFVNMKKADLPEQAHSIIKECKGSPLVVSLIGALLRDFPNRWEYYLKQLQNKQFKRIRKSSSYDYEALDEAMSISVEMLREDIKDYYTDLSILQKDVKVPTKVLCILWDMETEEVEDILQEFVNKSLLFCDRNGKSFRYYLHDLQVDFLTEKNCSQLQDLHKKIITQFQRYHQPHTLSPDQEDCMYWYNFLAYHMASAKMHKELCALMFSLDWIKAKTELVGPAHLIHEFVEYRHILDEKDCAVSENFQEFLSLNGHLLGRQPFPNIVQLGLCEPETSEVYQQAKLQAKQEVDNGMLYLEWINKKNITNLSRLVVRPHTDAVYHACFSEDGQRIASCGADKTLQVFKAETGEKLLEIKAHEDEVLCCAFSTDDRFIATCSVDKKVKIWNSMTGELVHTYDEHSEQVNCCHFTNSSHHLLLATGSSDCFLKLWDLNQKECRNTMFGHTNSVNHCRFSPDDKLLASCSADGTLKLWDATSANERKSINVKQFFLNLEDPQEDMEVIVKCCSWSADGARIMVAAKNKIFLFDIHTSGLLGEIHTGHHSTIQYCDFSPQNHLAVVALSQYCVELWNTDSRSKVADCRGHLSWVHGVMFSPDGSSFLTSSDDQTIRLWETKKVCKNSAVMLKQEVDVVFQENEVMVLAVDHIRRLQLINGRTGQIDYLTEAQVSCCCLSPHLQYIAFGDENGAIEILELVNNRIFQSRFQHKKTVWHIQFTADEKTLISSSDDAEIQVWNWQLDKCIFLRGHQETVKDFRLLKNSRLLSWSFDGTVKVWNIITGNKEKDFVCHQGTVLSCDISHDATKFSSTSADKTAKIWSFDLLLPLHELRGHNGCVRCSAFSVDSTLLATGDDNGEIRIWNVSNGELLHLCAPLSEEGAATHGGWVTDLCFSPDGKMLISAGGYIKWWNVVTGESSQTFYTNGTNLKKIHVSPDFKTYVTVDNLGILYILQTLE

[9] = HeLa cell cytotoxicity, dose response, cytotoxicity control for MgcRacGAP inhibitor project (AID 624300); type: functional
Kallikrein-7 = Kallikrein-7 (Homo sapiens, UniProt P49862); assay: Fluorescence Intensity-based biochemical primary high throughput dose response assay to identify activators of kallikrein-7 (K7) zymogen.
Kallikrein-7, sequence (P49862 whole entry): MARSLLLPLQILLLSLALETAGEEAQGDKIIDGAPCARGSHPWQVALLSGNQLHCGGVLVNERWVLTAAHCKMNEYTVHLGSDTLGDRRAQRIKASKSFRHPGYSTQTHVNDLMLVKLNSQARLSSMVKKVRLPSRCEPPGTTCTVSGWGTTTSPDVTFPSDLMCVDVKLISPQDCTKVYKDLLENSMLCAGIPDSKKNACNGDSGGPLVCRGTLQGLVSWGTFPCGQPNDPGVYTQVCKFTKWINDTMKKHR

[10] = biological target: T5, DNA repair protein RAD52 homolog (Homo sapiens, UniProt P43351); type: functional, biochemical
T5 sequence (P43351 whole entry): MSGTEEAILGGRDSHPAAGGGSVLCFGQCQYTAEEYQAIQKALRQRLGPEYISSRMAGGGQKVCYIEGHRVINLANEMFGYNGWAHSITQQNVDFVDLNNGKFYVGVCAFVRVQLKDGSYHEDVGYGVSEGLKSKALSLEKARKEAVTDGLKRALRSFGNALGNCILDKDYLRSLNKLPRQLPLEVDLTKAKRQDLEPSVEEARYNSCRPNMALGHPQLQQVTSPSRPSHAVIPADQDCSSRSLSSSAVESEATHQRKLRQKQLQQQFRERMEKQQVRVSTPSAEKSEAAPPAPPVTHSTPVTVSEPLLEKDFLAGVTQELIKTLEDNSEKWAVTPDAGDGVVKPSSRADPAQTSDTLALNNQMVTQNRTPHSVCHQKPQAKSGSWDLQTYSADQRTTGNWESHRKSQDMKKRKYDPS

[11] = biological target: T4, Apoptotic protease-activating factor 1; assay: SAR analysis of small molecule Activators of Apaf-1 in a Fluorescent assay.; type: functional; details: read-out: EC50_Mean

Which IC50 (Orexin receptor type 2 [1]) does the source give for `CN(C)/C=C1/Oc2c(ccc3ccccc23)C1=O` here?
Its IC50 is 18.3 µM (inactive).

And the IC50 [2]?
The IC50 was > 49.7 µM (inactive).

What about the IC50 (CHO-K1) of the same compound?
Its IC50 is > 66.2 µM (inactive).

And the IC50 (Orexin receptor type 2 [3])?
The IC50 was > 88.8 µM (inactive).

And the IC50 [4]?
The IC50 was 2.06 µM (active).

And the IC50 [5]?
The IC50 was 33.3 µM (inactive).

Which IC50 [6] does the source give for `CN(C)/C=N/c1ccc2[nH]c3c4ccccc4nc-3cc2c1` here?
The IC50 was 52.8 µM (active).

What about the IC50 [7] of the same compound?
Its IC50 is > 80 µM (inactive).

What about the IC50 [8] of the same compound?
The IC50 was 30.7 µM (active).

And the CC50 [9]?
Its CC50 is 100 µM (active).

What about the EC50 (Kallikrein-7) of the same compound?
The EC50 was > 2.57 µM (active).

And the AC50 [10]?
Its AC50 is 3.13 µM (active).

Which EC50 [11] does the source give for `COC(=O)c1coc(-c2ccc(Cl)cc2)n1` here?
The EC50 was > 100 µM (inactive).

Which EC50 [11] does the source give for `O=C(O)c1coc(-c2ccc(Cl)cc2)n1` here?
Its EC50 is > 100 µM (inactive).
